Earlier results in article PMC4585333, “Novel Regulator of Acylated Ghrelin, CF801, Reduces Weight Gain, Rebound Feeding after a Fast, and Adiposity in Mice” (Frontiers in Endocrinology, 2015).

Assays:
GOAT = details: microsomal assay; ref [56]; cited from earlier work
Text: An approach was undertaken to design a novel GOAT inhibitor, resulting in a compound we named CF801. The first five amino acids of CF801 derive from studies carried out in 2008 by Yang et al., who examined the inhibitory effect of certain pentapeptides (e.g., GSAFL-NH2) on GOAT using a microsomal assay ([56]). […] In synthesizing CF801, we extended and modified the original GSAFL-NH2 ...

[1] = effects appear similar to those of CF801; ref [74], [75]; cited from earlier work
Method: Given the high amino acid similarity between CF801 and desacyl ghrelin, it is possible that CF801 acts like an analog of desacyl ghrelin. […] Alternatively, CF801 may reduce acylated ghrelin simply by reducing GOAT mRNA, and thus acyl ghrelin levels, without altering GOAT activity at least in the way that this is tested in vitro. While the mechanisms underlying these ef ...

[2] = cited from earlier work
Text: One potential target for the control of body weight and appetite is the gut–brain peptide ghrelin. Ghrelin, a 28-amino-acid peptide produced in the X/A-like cells of the gastric oxyntic mucosa lining the stomach, is a key regulator of both short- and long-term energy homeostasis ([1]–[3]). Circulating ghrelin levels rise in anticipation of a meal and subside once the organism is satiated ([4]–[7]).

For GSAFL-NH2, the “inhibitory activity on GOAT” value (GOAT) is given as “showed inhibitory activity on GOAT”.

In the case of desacyl ghrelin, the “weight gain, ghrelin secretion and adipose tissue accumulation” value [1] is listed as “decrease in weight gain, ghrelin secretion, and adipose tissue accumulation”.

In the case of ghrelin, the feeding after injection ([2]; injections of ghrelin, ref [35]–[37]) is listed as “vigorous feeding bouts” and the “respiratory exchange ratio (RER)” value ([2]; mice receiving daily injections of ghrelin, ref [3]) is listed as “increases in RER”.
